Reference: ChEMBL document CHEMBL1127077, “Trisubstituted pyridine leukotriene B4 receptor antagonists: synthesis and structure-activity relationships” (J Med Chem, 1993)

What was measured:
U-937 = test: Antagonistic activity to inhibit the calcium mobilization response in human U-937 cells; type: functional, cell-based
[1] = target: Leukotriene B4 receptor 1 (Homo sapiens, UniProt Q15722); test: Binding affinity of [3H]LTB4 to receptors on intact human polymorphonuclear leukocytes
Chain of Leukotriene B4 receptor 1 (Q15722 whole entry): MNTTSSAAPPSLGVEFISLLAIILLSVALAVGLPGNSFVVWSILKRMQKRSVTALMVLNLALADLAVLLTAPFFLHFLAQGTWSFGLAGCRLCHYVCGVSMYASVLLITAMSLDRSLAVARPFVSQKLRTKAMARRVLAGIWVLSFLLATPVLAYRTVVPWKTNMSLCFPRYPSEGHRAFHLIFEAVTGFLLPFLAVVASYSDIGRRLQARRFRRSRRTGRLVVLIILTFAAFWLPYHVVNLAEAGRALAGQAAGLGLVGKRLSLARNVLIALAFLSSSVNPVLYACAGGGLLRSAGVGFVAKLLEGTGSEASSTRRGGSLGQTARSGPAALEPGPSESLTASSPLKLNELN

Structure (SMILES) | IC50 (U-937) [µM] | Ki [1] [µM]
COc1ccc(CCCCCCCCOc2ccc(C[S+]([O-])c3cccc(C(=O)O)c3)nc2/C=C/C(=O)O)cc1 (configuration not stated) | 1.1 | 0.151
COc1ccc(CCCCCCCCOc2ccc(C[S+]([O-])c3cccc(NS(=O)(=O)c4ccccc4)c3)nc2/C=C/C(=O)O)cc1 (configuration not stated) | 0.15 | 0.147
COc1ccc(CCCCCCCCOc2ccc(CSc3cccc(N(C)C)c3)nc2/C=C/C(=O)O)cc1 | 0.46 | 0.789
COc1ccc(CCCCCCCCOc2ccc(CSc3cccc(C(=O)O)c3)nc2/C=C/C(=O)O)cc1 | 0.39 | 0.08
CCCCCCCCCCCCOc1ccc(COc2cccc(C(=O)O)c2)nc1/C=C/C(=O)O | 0.58 | 1.13
COc1ccc(CCCCCCCCOc2ccc(CSc3cccc(NS(=O)(=O)C(F)(F)F)c3)nc2/C=C/C(=O)O)cc1 | 0.34 | 0.284
CCCCCCCCCCOc1ccc(CC(O)c2cccc(C(=O)O)c2)nc1/C=C/C(=O)O (configuration not stated) | 3.3 | 
COc1ccc(CCCCCCCCOc2ccc(CSc3cccc(OC)c3)nc2/C=C/C(=O)O)cc1 | 0.29 | 0.192
COc1ccc(CCCCCCCCOc2ccc(CS(=O)(=O)c3cccc(N)c3)nc2/C=C/C(=O)O)cc1 | 0.15 | 0.036
Nc1cccc([S+]([O-])Cc2ccc(OCCCCCCCCc3ccccc3)c(/C=C/C(=O)O)n2)c1 (configuration not stated) | 0.16 | 0.011
Nc1cccc([S+]([O-])Cc2ccc(OCCCCCCCCc3ccc(F)cc3)c(/C=C/C(=O)O)n2)c1 (configuration not stated) | 0.11 | 0.012
CCCCCCCCCCCCOc1ccc(C[S+]([O-])c2ccccc2C(=O)O)nc1/C=C/C(=O)O (configuration not stated) | 1.5 | 0.478
COc1ccc(CCCCCCCCOc2ccc(COc3cccc(C(=O)O)c3)[n+]([O-])c2/C=C/C(=O)O)cc1 | 0.89 | 0.15
COc1ccc(CCCCCCCCOc2ccc(C[S+]([O-])c3ccccc3)nc2/C=C/C(=O)O)cc1 (configuration not stated) | 0.28 | 0.037
CCCCCCCCC(O)/C=C/c1cccc(CC(O)c2cccc(C(=O)O)c2)n1 (configuration not stated) |  | 0.001
COc1ccc(CCCCCCCCOc2ccc(C[S+]([O-])c3cccc(OC)c3)nc2/C=C/C(=O)O)cc1 (configuration not stated) | 0.3 | 0.232

Structure (SMILES) | IC50 (U-937) [µM] | Ki [1] [µM]
CCCCCCCCCCCCOc1ccc(COc2cccc(C(=O)O)c2)[n+]([O-])c1/C=C/C(=O)O | 1.01 | 0.338
Nc1cccc(SCc2ccc(OCCCCCCCCc3ccccc3)c(/C=C/C(=O)O)n2)c1 | 0.06 | 0.036
COc1ccc(CCCCCCCCOc2ccc(CSc3cccc(NS(=O)(=O)c4ccccc4)c3)nc2/C=C/C(=O)O)cc1 | 0.24 | 0.609
COc1ccc(CCCCCCCCOc2ccc(C[S+]([O-])c3cccc(N)c3)nc2/C=C/C(=O)O)cc1 (configuration not stated) | 0.074 | 0.0047
Nc1cccc(SCc2ccc(OCCCCCCCCc3ccc(C(F)(F)F)cc3)c(/C=C/C(=O)O)n2)c1 | 0.078 | 0.043
COc1ccc(CCCCCCCCOc2ccc(CSc3cccc(N)c3)nc2/C=C/C(=O)O)cc1 | 0.054 | 0.034
Nc1cccc([S+]([O-])Cc2ccc(OCCCCCCCCc3ccc(C(F)(F)F)cc3)c(/C=C/C(=O)O)n2)c1 (configuration not stated) | 0.054 | 0.014
CCCCCCCCCCCCOc1ccc(CS(=O)(=O)c2cccc(C(=O)O)c2)nc1/C=C/C(=O)O | 1.06 | 0.148
COc1ccc(CCCCCCCCOc2ccc(C[S+]([O-])c3cccc(N(C)C)c3)nc2/C=C/C(=O)O)cc1 (configuration not stated) | 0.82 | 0.245
COc1ccc(CCCCCCOc2ccc(CC(O)c3cccc(C(=O)O)c3)nc2/C=C/C(=O)O)cc1 (configuration not stated) | 4 | 0.165
COc1ccc(CCCCCCCCOc2ccc(CSc3ccccc3)nc2/C=C/C(=O)O)cc1 | 0.11 | 0.074
CCCCCCCCCCOc1ccc(CC(O)c2cccc(C(=O)O)c2)nc1CCC(=O)O (configuration not stated) | 3.4 | 0.429
COc1ccc(CCCCCCCCOc2ccc(C[S+]([O-])c3cccc(CS(=O)(=O)C(F)(F)F)c3)nc2/C=C/C(=O)O)cc1 (configuration not stated) | 0.55 | 0.225
COc1ccc(CCCCCCCCOc2ccc(CSc3cccc(NC(=O)C(=O)O)c3)nc2/C=C/C(=O)O)cc1 | 0.48 | 0.072
CCCCCCCCCCCCOc1ccc(C[S+]([O-])c2cccc(C(=O)O)c2)nc1/C=C/C(=O)O (configuration not stated) | 0.93 | 0.129
CCCCCCCCCCCCOc1ccc(C[S+]([O-])c2ccc(C(=O)O)cc2)nc1/C=C/C(=O)O (configuration not stated) | 1.3 | 0.252
